Values quoted from earlier work in patent publication US20160158245A1, “PHARMACEUTICAL FORMULATION CONTAINING THIENOTRIAZOLODIAZEPINE COMPOUNDS” (ONCOETHIX GmbH, priority 2013, published 2016).

Tested on: BRD4 and c-MYC
Details: cited from earlier work

In the case of Cc1sc2c(c1C)C(c1ccc(Cl)cc1)=N[C@@H](CC(=O)OC(C)(C)C)c1nnc(C)n1-2 [JQ1], the “BRD4 and c-MYC down-regulation” value is given as “induce BRD4 down-regulation and subsequently c-MYC down-regulation”.
